This note sets out measurements from EP0475392B1, “Herbicidal composition” (ISHIHARA SANGYO KAISHA, Ltd., priority 1990, dated 1992).

Counter-ions that a name gives are not always drawn.

The subject of the assay is Digitaria sanguinalis. In words: Test Example 1 (Foliage Treatment Test), herbicidal effect by visual observation. It is filed as in vivo. The following applies: foliar application at six-leaf stage, 27 days after treatment. The text has this: Upland soil was placed in 1/10,000-are (are (a) = 100 m²) pots and sown with Digitaria sanguinalis. When the plants reached the six-leaf stage, a predetermined amount of each herbicidal composition which had been diluted with 10 ℓ, per are, of water and further admixed with 0.2 % (v/v) of a spreader (Shin Rino®: manufactured by Nihon Nohyaku Co., Ltd.) was foliarly applied on the plants using a small spray gun. 27 days after the foliage treatment application, the herbicidal effect of the herbicidal composition was examined through visual observation according to the following evaluation criteria.

As to `O=C(O)CNCP(=O)(O)O` [Isopropylamine salt of Compound B, isopropylamine salt of N-(phosphonomethyl)glycine, reference compound], the Rating reads like this: (2.5 g/a active ingredient) 4 (40 to 49); (5 g/a active ingredient) 6 (60 to 69).

`COc1cc(OC)nc(NC(=O)NS(=O)(=O)c2ncccc2C(F)(F)F)n1` [Compound A, 1-(4,6-dimethoxy-pyrimidin-2-yl)-3-(3-trifluoromethyl-2-pyridylsulfonyl)urea]: the Rating is, setting by setting: (0.25 g/a active ingredient) 2 (20 to 29); (0.5 g/a active ingredient) 3 (30 to 39); (1 g/a active ingredient) 3 (30 to 39).
